Reference: patent US7834024B2, “Compositions and methods for inhibition of the JAK pathway” (Rigel Pharmaceuticals, Inc., priority 2007, dated 2010)
Like-named read-outs stand apart in the source and are kept apart here.

Test system: Ramos B-Cell Line Stimulated with IL-4 (JAK-1 and JAK-3 / Stat-6, CD23)
Assay: Assay for Ramos B-Cell Line Stimulated with IL-4 (CD23 upregulation, FACS)
Type: cell-based
Details: human Ramos B cells, compound 1 hour, IL-4 50 units/mL for 20-24 hours, anti-CD23-PE FACS, read-out: Example 2 (IC50)
Excerpt: One means of assaying for such inhibition is detection of the effect of the 2,4-pyrimidinediamine compounds on the upregulation of downstream gene products. In the Ramos/IL4 assay, B-cells are stimulated with the cytokine Interleukin-4 (IL-4) leading to the activation of the JAK/Stat pathway through phosphorylation of the JAK family kinases, JAK1 and JAK3, which in turn phosphorylate and activate the transcription factor Stat-6. […] To study the effect of inhibitors (e.g., the 2,4-substituted pyrimindinediamine compounds described herein) on the JAK1 and JAK3 kinases, human Ramos B cells are stimulated with human IL-4. 20 to 24 hours post stimulation, cells are stained for upregulation of CD23 and analyzed using flow cytometry (FACS).
B-cells stimulated with cytokine Interleukin-4 (IL-4) activate the JAK/Stat pathway through phosphorylation of the JAK family kinases, JAK-1 and JAK-3, which in turn phosphorylate and activate the transcription factor Stat-6. […] To study the effect of inhibitors on the JAK family kinases, human Ramos B cells were stimulated with human IL-4.
Cells were maintained at a density of 3.5×10^5. The day before the experiment, Ramos B-cells were diluted to 3.5×10^5 cells/mL to ensure that they were in a logarithmic growth phase.
Cells were spun down and suspended in RPMI with 5% serum. 5×10^4 cells were used per point in a 96-well tissue culture plate. Cells were pre-incubated with compound or DMSO (Sigma-Aldrich, St. Louis, Mo., Cat No. D2650) vehicle control for 1 hour in a 37° C. incubator. Cells were then stimulated with IL-4 (Peprotech Inc., Rocky Hill, N.J., Cat No. 200-04) for a final concentration of 50 units/mL for 20-24 hours. […] Detection was performed using a BD LSR I System Flow Cytometer, purchased from Becton Dickinson Biosciences of San Jose, Calif.

Molecule	IC50 (Homo sapiens, Ramos) [nM]	IC50 [nM]
N#CCOc1ccc(Nc2nc(Nc3ccc(C(N)=O)cc3)ncc2F)cc1F [Compound I-101, N2-(4-Aminocarbonylphenyl)-N4-(4-cyanomethoxy-3-fluorophenyl)-5-fluoro-2,4-pyrimidinediamine]	33.7	
C#CCOc1ccc(Nc2nc(Nc3ccc(C(N)=S)cc3)ncc2F)cc1 [Compound I-7, N2-(4-Aminocarbonothioylphenyl)-5-fluoro-N4-[4-(2-propynyloxy)phenyl]-2,4-pyrimidinediamine]	223	
CNC(=O)COc1cccc(Nc2ncc(C)c(Nc3cnc4c(c3)OC(F)(F)C(=O)N4)n2)c1 [II-36, N4-(2,2-Difluoro-3-oxo-4H-5-pyrido[1,4]oxazin-7-yl)-5-methyl-N2-[3-(N-methylaminocarbonylmethyleneoxy)phenyl]-2,4-pyrimidinediamine]		3780
Cc1cnc(Nc2cccc(C(N)=O)c2)nc1Nc1ccc2c(n1)NC(=O)C(C)(C)O2 [II-40, N2-(3-Aminocarbonylphenyl)-N4-(2,2-dimethyl-3-oxo-4H-5-pyrido[1,4]oxazin-6-yl)-5-methyl-2,4-pyrimidinediamine]		163
Cc1nc(COc2ccc(Nc3nc(Nc4ccc(N5CCN(C)CC5)c(C(N)=O)c4)ncc3F)cc2)no1 [Compound I-62, N2-[3-Aminocarbonyl-4-(4-methylpiperazin-1-yl)phenyl]-5-fluoro-N4-[4-((5-methyl-1,2,4-oxadiazol-3-yl)methoxy)phenyl]-2,4-pyrimidinediamine]	80.5	
CCc1cc(Nc2ncc(F)c(Nc3cccc(OCC#N)c3)n2)cc(C#N)c1Cl [Compound I-105, N2-(4-Chloro-3-cyano-5-ethylphenyl)-N4-(3-cyanomethoxyphenyl)-5-fluoro-2,4-pyrimidinediamine]	31600	
Cc1cc(Nc2nc(Nc3cccc(C(N)=O)c3)ncc2F)cc(C)c1OCC#N [Compound I-91, N2-(3-Aminocarbonylphenyl)-N4-(4-cyanomethoxy-3,5-dimethylphenyl)-5-fluoro-2,4-pyrimidinediamine]	333	
N#Cc1ccc(Nc2ncc(F)c(Nc3cccc(OCC(N)=O)c3)n2)cc1 [Compound I-34, N4-(3-Aminocarbonylmethoxyphenyl)-N2-(4-cyanophenyl)-5-fluoro-2,4-pyrimidinediamine]	1250	
COc1ccc(Nc2nc(Nc3cccc(C#N)c3)ncc2F)cc1Cl [Compound I-18, N4-(3-Chloro-4-methoxyphenyl)-N2-(3-cyanophenyl)-5-fluoro-2,4-pyrimidinediamine]	266	
Cc1nc(COc2ccc(Nc3nc(Nc4ccc(C(=O)N5CCN(C)CC5)cc4)ncc3F)cc2)no1 [Compound I-61, 5-Fluoro-N4-[4-((5-methyl-1,2,4-oxadiazol-3-yl)methoxy)phenyl]-N2-[4-((4-methylpiperazin-1-yl)carbonyl)phenyl]-2,4-pyrimidinediamine]		898
Cc1cnc(Nc2cccc(C(N)=O)c2)nc1Nc1ccc2c(c1)CCC(=O)N2C [II-28, N2-(3-Aminocarbonylphenyl)-5-methyl-N4-(1-methyl-2-oxo-1,2,3,4-tetrahydroquinolin-6-yl)-2,4-pyrimidinediamine]	899	
NC(=O)COc1ccc(Nc2nc(Nc3cccc(C(N)=O)c3)ncc2F)cc1 [Compound I-23, N4-(4-Aminocarbonylmethoxyphenyl)-N2-(3-aminocarbonylphenyl)-5-fluoro-2,4-pyrimidinediamine]	3070	
N#Cc1cccc(Nc2ncc(F)c(Nc3cccc(OCC(N)=O)c3)n2)c1 [Compound I-35, N4-(3-Aminocarbonylmethoxyphenyl)-N2-(3-cyanophenyl)-5-fluoro-2,4-pyrimidinediamine]	326	
CC(C#N)Oc1ccc(Nc2nc(Nc3ccc(CC#N)cc3)ncc2F)cc1 (stereo not shown) [Compound I-78, N4-[4-(1-Cyanoethoxy)phenyl]-N2-(4-cyanomethylphenyl)-5-fluoro-2,4-pyrimidinediamine]	117	
NC(=O)c1ccc(Nc2ncc(F)c(Nc3cccc(-c4ncco4)c3)n2)cc1Cl [Compound I-14, N2-(4-Aminocarbonyl-3-chlorophenyl)-5-fluoro-N4-[3-(oxazol-2-yl)phenyl]-2,4-pyrimidinediamine]	178	
Cc1cnc(Nc2cccc(C(N)=O)c2)nc1Nc1ccc2c(c1)NC(=O)CO2 [II-38, N2-(3-Aminocarbonylphenyl)-N4-(3,4-dihydro-2H-3-oxo-4H-benz[1,4]oxazin-6-yl)-5-methyl-2,4-pyrimidinediamine]		177

Molecule	IC50 (Homo sapiens, Ramos) [nM]	IC50 [nM]
CCc1cc(Nc2ncc(F)c(Nc3ccc4c(c3)NC(=O)CS4)n2)cc(C#N)c1Cl [II-23, N2-(4-Chloro-3-cyano-5-ethylphenyl)-5-fluoro-N4-(3-oxo-2H,4H-benzo[1,4]thiazin-6-yl)-2,4-pyrimidinediamine]	174	
CCn1nccc1NC(=O)c1ccc(Nc2ncc(F)c(Nc3ccc(OC)c(Cl)c3)n2)cc1 [Compound I-3, N4-(3-Chloro-4-methoxyphenyl)-N2-[4-((I-ethyl-1H-pyrazol-5-yl)aminocarbonyl)phenyl]-5-fluoro-2,4-pyrimidinediamine]		119
CNC(=O)COc1cc(Nc2ncc(F)c(Nc3ccc4c(n3)NC(=O)C(C)(C)O4)n2)cc(OC)c1OC [II-21, N2-[4,5-Dimethoxy-3-(N-methylaminocarbonylmethyleneoxy)phenyl]-N4-(2,2-dimethyl-3-oxo-4H-5-pyrido[1,4]oxazin-6-yl)-5-fluoro-2,4-pyrimidinediamine]		130
Cc1cnc(Nc2cccc(C(N)=O)c2)nc1Nc1ccc(OCc2ccccn2)cc1 [Compound I-134, N2-(3-Aminocarbonylphenyl)-5-methyl-N4-[4-(2-pyridinylmethyleneoxy)phenyl]-2,4-pyrimidinediamine]		84.6
CN1CCN(C(=O)c2ccc(Nc3ncc(F)c(Nc4ccc(OCC(N)=O)cc4)n3)cc2)CC1 [Compound I-36, N4-(4-Aminocarbonylmethoxyphenyl)-5-fluoro-N2-[4-((4-methylpiperazin-1-yl)carbonyl)phenyl]-2,4-pyrimidinediamine]	3020	
COc1ccc(Nc2nc(Nc3ccc4oc(C(=O)NCCN5CCOCC5)cc4c3)ncc2F)cc1Cl [III-1, N4-(3-Chloro-4-methoxyphenyl)-5-fluoro-N2-[2-(2-(N-morpholinyl)ethylaminocarbonyl)benzofuran-5-yl]-2,4-pyrimidinediamine]	150	
CNC(=O)COc1cccc(Nc2ncc(Br)c(Nc3ccc4c(c3)OCCO4)n2)c1 [II-1, 5-Bromo-N4-(3,4-ethylenedioxyphenyl)-N2-[3-(N-methylaminocarbonylmethyleneoxy)phenyl]-2,4-pyrimidinediamine]		80.9
CNC(=O)COc1cccc(Nc2ncc(Br)c(Nc3ccc(OC)c(Cl)c3)n2)c1 [Compound I-1, 5-Bromo-N4-(3-chloro-4-methoxyphenyl)-N2-[3-(N-methylaminocarbonylmethyleneoxy)phenyl]-2,4-pyrimidinediamine]		123
CNC(=O)COc1cccc(Nc2ncc(F)c(Nc3ccc(Cc4ccncc4)cc3)n2)c1 [Compound I-132, 5-Fluoro-N2-[3-(N-methylaminocarbonylmethyleneoxy)phenyl]-N4-[4-(4-pyridinylmethyl)phenyl]-2,4-pyrimidinediamine]		322
N#CCOc1ccc(Nc2nc(Nc3cccc(C(N)=O)c3)ncc2F)cc1F [Compound I-102, N2-(3-Aminocarbonylphenyl)-N4-(4-cyanomethoxy-3-fluorophenyl)-5-fluoro-2,4-pyrimidinediamine]	259	
CCN(CC)CCNC(=O)c1ccc(Nc2ncc(F)c(Nc3ccc(OCc4cc(C)on4)cc3)n2)cc1 [Compound I-127, N2-[4-(2-(N,N-Diethylamino)ethylaminocarbonyl)phenyl]-5-fluoro-N4-[4-((5-methylisoxazol-3-yl)methyleneoxy)phenyl]-2,4-pyrimidinediamine]		9.33
N4-(4-Chloro-3-methoxyphenyl)-N2-[1-(2-(N-morpholinyl)ethylaminocarbonyl)-1H-indol-6-yl]-2,4-pyrimidinediamine [VI-4]		889
CN1C(=O)CSc2ccc(Nc3nc(Nc4ccc(C(N)=O)cc4)ncc3F)cc21 [II-4, N2-(4-Aminocarbonylphenyl)-5-fluoro-N4-(4-methyl-3-oxo-2H-benzo[1,4]thiazin-6-yl)-2,4-pyrimidinediamine]	5.43	
CNC(=O)c1cc(Nc2ncc(F)c(Nc3cccc(OCC#N)c3)n2)ccc1N1CCN(C)CC1 [Compound I-55, N4-(3-Cyanomethoxyphenyl)-5-fluoro-N2-[3-methylaminocarbonyl-4-(4-methylpiperazin-1-yl)phenyl]-2,4-pyrimidinediamine]	38.4	
N#CCOc1ccc(Nc2nc(Nc3cccc(C(N)=O)c3)ncc2F)cc1 [Compound I-28, N2-(3-Aminocarbonylphenyl)-N4-(4-cyanomethoxyphenyl)-5-fluoro-2,4-pyrimidinediamine]	65.1	
